Assay results published in ChEMBL document CHEMBL1125501, “Probes for narcotic receptor mediated phenomena. 18. Epimeric 6 alpha- and 6 beta-iodo-3,14-dihydroxy-17-(cyclopropylmethyl)-4,5 alpha-epoxymorphinans as potential ligands for opioid receptor single photon emission computed tomography: synthesis, evaluation, and radiochemistry of [125I]-6 …” (J Med Chem, 1992).

How the values were obtained:
Mu-type opioid receptor [1] = molecular target: T1, Mu-type opioid receptor (Rattus norvegicus, UniProt P33535); assay type: cell membranes, Brain, Brain membranes
T1 sequence (P33535 whole entry): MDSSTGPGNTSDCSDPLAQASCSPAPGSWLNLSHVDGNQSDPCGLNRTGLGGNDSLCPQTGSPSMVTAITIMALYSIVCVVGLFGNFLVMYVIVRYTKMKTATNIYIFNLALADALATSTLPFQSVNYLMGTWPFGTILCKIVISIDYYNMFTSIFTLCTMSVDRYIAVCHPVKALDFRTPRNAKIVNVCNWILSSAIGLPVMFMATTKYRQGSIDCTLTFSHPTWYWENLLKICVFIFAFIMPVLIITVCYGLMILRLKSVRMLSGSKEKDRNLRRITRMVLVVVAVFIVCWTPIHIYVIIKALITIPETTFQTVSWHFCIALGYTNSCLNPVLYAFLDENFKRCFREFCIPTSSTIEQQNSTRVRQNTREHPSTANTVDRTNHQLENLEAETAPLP

[2] = molecular target: T2, Delta-type opioid receptor (Rattus norvegicus, UniProt P33533); test: In vito concentration required to displace [3H]-DADLE (Kd = 12.2 nM and concentration is 2.1 nM) from low affinity delta-site in rat brain membranes.; assay type: cell membranes
T2 sequence (P33533 whole entry): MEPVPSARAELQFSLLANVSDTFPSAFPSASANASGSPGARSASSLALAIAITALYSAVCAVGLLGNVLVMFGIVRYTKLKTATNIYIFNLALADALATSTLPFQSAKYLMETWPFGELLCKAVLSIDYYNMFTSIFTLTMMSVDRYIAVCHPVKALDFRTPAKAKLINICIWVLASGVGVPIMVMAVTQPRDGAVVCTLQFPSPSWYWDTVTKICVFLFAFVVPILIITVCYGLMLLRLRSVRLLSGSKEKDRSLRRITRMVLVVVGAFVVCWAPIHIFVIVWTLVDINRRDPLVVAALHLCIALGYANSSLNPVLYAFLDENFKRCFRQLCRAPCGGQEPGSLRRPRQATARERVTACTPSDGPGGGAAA

Mu-type opioid receptor [3] = molecular target: T1, Mu-type opioid receptor; assay type: cell membranes, Brain, Brain membranes; remark: listed apart in the source
[4] = molecular target: T2, Delta-type opioid receptor; test: In vito concentration required to displace [3H]DADLE (Kd = 12.2 nM and concentration is 2.1 nM) from low affinity delta-site in rat brain membranes.; assay type: cell membranes
[5] = molecular target: T3, Kappa-type opioid receptor (Cavia porcellus, UniProt P41144); test: In vito concentration required to displace 9 (Kd = […] and concentration is 1.8 nM) from opioid receptor kappa 2 in guinea brain membranes.; assay type: cell membranes
T3 sequence (P41144 whole entry): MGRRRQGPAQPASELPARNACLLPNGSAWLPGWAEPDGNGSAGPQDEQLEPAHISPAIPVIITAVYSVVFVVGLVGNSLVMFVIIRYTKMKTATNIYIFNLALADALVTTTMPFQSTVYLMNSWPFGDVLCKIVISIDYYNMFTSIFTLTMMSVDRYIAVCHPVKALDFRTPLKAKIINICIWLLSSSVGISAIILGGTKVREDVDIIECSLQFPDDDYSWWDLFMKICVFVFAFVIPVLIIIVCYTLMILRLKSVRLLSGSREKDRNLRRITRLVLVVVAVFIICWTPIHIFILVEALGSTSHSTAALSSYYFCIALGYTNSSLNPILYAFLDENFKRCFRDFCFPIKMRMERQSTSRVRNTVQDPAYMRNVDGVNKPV

[6] = molecular target: T3, Kappa-type opioid receptor; test: In vito concentration required to displace [3H]BRM (Kd = 1.0 nM and concentration is 1.8 nM) from opioid receptor kappa 2 in guinea brain membranes.; assay type: cell membranes
[7] = molecular target: T2, Delta-type opioid receptor; test: In vito concentration required to displace [3H]DADLE (Kd = […] and concentration is […]) from high affinity delta-site in rat brain membranes.; assay type: cell membranes
[8] = molecular target: T3, Kappa-type opioid receptor; test: In vito concentration required to displace [3H]-BRM (Kd = 1.0 nM and concentration is 1.8 nM) from opioid receptor kappa 2 in guinea brain membranes.; assay type: cell membranes
[9] = molecular target: T3, Kappa-type opioid receptor; test: In vito concentration required to displace 9 (Kd = […] and concentration is 1.8 nM) from opioid receptor kappa 1 in guinea brain membranes.; assay type: cell membranes
Mu-type opioid receptor [10] = molecular target: T1, Mu-type opioid receptor; test: In vito concentration required to displace [3H]DAGO (Kd = 0.7 nM and concentration is […]) from opioid receptor mu in rat brain membranes.; assay type: cell membranes

Structure (SMILES) | IC50 (Mu-type opioid receptor [1]) [nM] | IC50 [2] [nM] | Ki (Mu-type opioid receptor [3]) [nM] | Ki [4] [nM] | Ki [5] [nM] | IC50 [6] [nM] | IC50 [7] [nM] | Ki [8] [nM] | Ki [9] [nM] | Ki [7] [nM] | IC50 (Mu-type opioid receptor [10]) [nM] | Ki (Mu-type opioid receptor [10]) [nM] | IC50 [9] [nM]
Oc1ccc2c3c1O[C@H]1[C@H](I)CC[C@@]4(O)[C@@H](C2)N(CC2CC2)CC[C@]314 | 0.77 | 2.64 | 0.29 | 2.25 | 2.73 | 7.65 | 25.6 | – | – | – | – | – | –
Oc1ccc2c3c1O[C@H]1[C@@H](I)CC[C@@]4(O)[C@@H](C2)N(CC2CC2)CC[C@]314 | 4.34 | 8.06 | 1.65 | 6.88 | – | 23.7 | – | 8.46 | – | – | – | – | –
Oc1ccc2c3c1O[C@H]1[C@H](F)CC[C@@]4(O)[C@@H](C2)N(CC2CC2)CC[C@]314 | 8.98 | 16.2 | 3.42 | 13.8 | – | 66 | 268 | – | 3.71 | 122 | 11.4 | 3.32 | –
Oc1ccc2c3c1O[C@H]1[C@@H](Br)CC[C@@]4(O)[C@@H](C2)N(CC2CC2)CC[C@]314 | 3.14 | 5.77 | 1.19 | 4.92 | – | 20.2 | 4.3 | 7.21 | 0.32 | 1.96 | 4.21 | 1.23 | 0.7
